Measured values reported in patent US20210101928A1 (Sage Therapeutics, Inc., priority 2017, published 2021).

target: GABAA receptor ([35S]-TBPS binding, rat brain cortical membranes); test: Steroid inhibition of [35S]-TBPS binding; settings: Table I-1, 3 nM [35S]-TBPS, in the presence of 5 mM GABA, read-out: TBPS binding IC50
Method: [^35S]-t-Butylbicyclophosphorothionate (TBPS) binding assays using rat brain cortical membranes in the presence of 5 mM GABA has been described (Gee et al, J. Pharmacol. Exp. Ther. 1987, 241, 346-353; Hawkinson et al, Mol. Pharmacol. 1994, 46, 977-985; Lewin, A. H et al., Mol. Pharmacol. 1989, 35, 189-194).
Briefly, cortices are rapidly removed following decapitation of carbon dioxide-anesthetized Sprague-Dawley rats (200-250 g). The cortices are homogenized in 10 volumes of ice-cold 0.32 M sucrose using a glass/teflon homogenizer and centrifuged at 1500×g for 10 min at 4° C. The resultant supernatants are centrifuged at 10,000×g for 20 min at 4° C. to obtain the P2 pellets. The P2 pellets are resuspended in 200 mM NaCl/50 mM Na—K phosphate pH 7.4 buffer and centrifuged at 10,000×g for 10 min at 4° C. This washing procedure is repeated twice and the pellets are resuspended in 10 volumes of buffer. Aliquots ([…]) of the membrane suspensions are incubated with 3 nM [^35S]-TBPS and […] aliquots of test drug dissolved in dimethyl sulfoxide (DMSO) (final 0.5%) in the presence of 5 mM GABA. The incubation is brought to a final volume of 1.0 mL with buffer. Nonspecific binding is determined in the presence of […] and ranged from 15 to 25%. Following a 90 min incubation at room temp, the assays are terminated by filtration through glass fiber filters (Schleicher and Schuell No. 32) using a cell harvester (Brandel) and rinsed three times with ice-cold buffer. Filter bound radioactivity is measured by liquid scintillation spectrometry. Non-linear curve fitting of the overall data for each drug averaged for each concentration is done using Prism (GraphPad). […] The concentration of test compound producing 50% inhibition (IC50) of specific binding and the maximal extent of inhibition (Imax) are determined for the individual experiments with the same model used for the overall data and then the means±SEM.s of the individual experiments are calculated.
Various compounds are or can be screened to determine their potential as modulators of [^35S]-TBPS binding in vitro. These assays are or can be performed in accordance with the above.

| Compound | IC50 |
| --- | --- |
| CN(CC(=O)[C@H]1CC[C@H]2[C@@H]3CC[C@]4(C)C[C@](C)(O)CC[C@]4(C)[C@H]3CC[C@]12C)c1ccccc1 [I-A2, 1-((3R,5R,8S,9S,10R,13S,14S,17S)-3-hydroxy-3,5,10,13-tetramethylhexadecahydro-1H-cyclopenta[a]phenanthren-17-yl)-2-(methyl(phenyl)amino)ethan-1-one] | 100 to 1000 nM |
| C[C@@]1(O)CC[C@]2(C)[C@H]3CC[C@]4(C)[C@@H](C(=O)CNc5ccccc5)CC[C@H]4[C@@H]3CC[C@]2(C)C1 [I-A3, 1-((3R,5R,8S,9S,10R,13S,14S,17S)-3-hydroxy-3,5,10,13-tetramethylhexadecahydro-1H-cyclopenta [a]phenanthren-17-yl)-2-(phenylamino)ethan-1-one] | 100 to 1000 nM |
| C[C@@]1(O)CC[C@]2(C)[C@H]3CC[C@]4(C)[C@@H](C(=O)Cn5cc(C#N)cn5)CC[C@H]4[C@@H]3CC[C@]2(C)C1 [I-A4, 1-(2-((3R,5R,8S,9S,10R,13S,14S,17S)-3-hydroxy-3,5,10,13-tetramethylhexadecahydro-1H-cyclopenta[a]phenanthren-17-yl)-2-oxoethyl)-1H-pyrazole-4-carbonitrile] | 100 to 1000 nM |
| CC(=O)[C@H]1CC[C@H]2[C@@H]3CC[C@]4(C)C[C@@](C)(O)CC[C@]4(C)[C@H]3CC[C@]12C [I-A5, 1-((3S,5R,8S,9S,10R,13S,14S,17S)-3-hydroxy-3,5,10,13-tetramethylhexadecahydro-1H-cyclopenta[a]phenanthren-17-yl)ethan-1-one] | 1000 to 10000 nM |
| C[C@@]1(O)CC[C@]2(C)[C@H]3CC[C@]4(C)[C@@H](C(=O)Cn5cc6ccncc6n5)CC[C@H]4[C@@H]3CC[C@]2(C)C1 [I-A6, 1-((3R,5R,8S,9S,10R,13S,14S,17S)-3-hydroxy-3,5,10,13-tetramethylhexadecahydro-1H-cyclopenta[a]phenanthren-17-yl)-2-(2H-pyrazolo[3,4-c]pyridin-2-yl)ethan-1-one] | 100 to 1000 nM |
| C[C@@]1(O)CC[C@]2(C)[C@H]3CC[C@]4(C)[C@@H](C(=O)Cn5ncc6ccncc65)CC[C@H]4[C@@H]3CC[C@]2(C)C1 [I-A7, 1-((3R,5R,8S,9S,10R,13S,14S,17S)-3-hydroxy-3,5,10,13-tetramethylhexadecahydro-1H-cyclopenta[a]phenanthren-17-yl)-2-(1H-pyrazolo[3,4-c]pyridin-1-yl)ethan-1-one] | 100 to 1000 nM |
| Cc1nnnn1CC(=O)[C@H]1CC[C@H]2[C@@H]3CC[C@]4(C)C[C@](C)(O)CC[C@]4(C)[C@H]3CC[C@]12C [I-A8, 1-((3R,5R,8S,9S,10R,13S,14S,17S)-3-hydroxy-3,5,10,13-tetramethylhexadecahydro-1H-cyclopenta[a]phenanthren-17-yl)-2-(5-methyl-1H-tetrazol-1-yl)ethan-1-one] | 100 to 1000 nM |
| Cc1nnn(CC(=O)[C@H]2CC[C@H]3[C@@H]4CC[C@]5(C)C[C@](C)(O)CC[C@]5(C)[C@H]4CC[C@]23C)n1 [I-A9, 1-((3R,5R,8S,9S,10R,13S,14S,17S)-3-hydroxy-3,5,10,13-tetramethylhexadecahydro-1H-cyclopenta[a]phenanthren-17-yl)-2-(5-methyl-2H-tetrazol-2-yl)ethan-1-one] | 100 to 1000 nM |
| CC(=O)[C@H]1CC[C@H]2[C@@H]3CC[C@]4(C)C[C@](C)(O)CC[C@]4(C)[C@H]3CC[C@]12C [I-B6, 1-((3R,5R,8S,9S,10R,13S,14S,17S)-3-hydroxy-3,5,10,13-tetramethylhexadecahydro-1H-cyclopenta [a]phenanthren-17-yl)ethan-1-one] | 100 to 1000 nM |

same assay, conditions: Table II-2, 3 nM [35S]-TBPS, in the presence of 5 mM GABA, read-out: TBPS IC50

| Compound | IC50 |
| --- | --- |
| CC[C@]12CC[C@@](C)(O)C[C@H]1CC[C@H]1[C@@H]3CC[C@H](C(=O)Cn4cc(C#N)cn4)[C@@]3(C)CC[C@@H]12 | < 10 nM |
| CC[C@]12CC[C@@](C)(O)C[C@H]1CC[C@H]1[C@@H]3CC[C@H](C(=O)Cn4nnc5ccc(OC)cc54)[C@@]3(C)CC[C@@H]12 (single isomer, unassigned) [II-M2] | < 10 nM |
| CC[C@]12CC[C@@](C)(O)C[C@H]1CC[C@H]1[C@@H]3CC[C@H](C(=O)Cn4nnc5cc(OC)ccc54)[C@@]3(C)CC[C@@H]12 (single isomer, unassigned) [II-M2a] | < 10 nM |
| CC[C@]12CC[C@@](C)(O)C[C@H]1CC[C@H]1[C@@H]3CC[C@H](C(=O)Cn4nc5ccc(OC)cc5n4)[C@@]3(C)CC[C@@H]12 (single isomer, unassigned) [II-M2b] | < 10 nM |
| CCOC[C@@]1(O)CC[C@@]2(CC)C(CC[C@@H]3[C@@H]2CC[C@]2(C)[C@@H](C(=O)Cn4nnc(C)n4)CC[C@@H]32)C1 (stereo in doubt) [II-77, 1-((3R,5R,8S,9S,10S,13S,14S,17S)-3-(ethoxymethyl)-10-ethyl-3-hydroxy-13-methylhexadecahydro-1H-cyclopenta[a]phenanthren-17-yl)-2-(5-methyl-2H-tetrazol-2-yl)ethan-1-one] | 10 to 100 nM |
| CC[C@]12CC[C@@](C)(O)C[C@H]1CC[C@H]1[C@@H]3CC[C@H](C(=O)N4CC[C@@H](c5ccccc5)C4)[C@@]3(C)CC[C@@H]12 [II-1] | 10 to 100 nM |
| CC[C@]12CC[C@@](C)(O)C[C@H]1CC[C@H]1[C@@H]3CC[C@H](C(=O)Cn4nccn4)[C@@]3(C)CC[C@@H]12 [II-13, 1-((3R,5R,8S,9S,10S,13S,14S,17S)-10-ethyl-3-hydroxy-3,13-dimethylhexadecahydro-1H-cyclopenta[a]phenanthren-17-yl)-2-(2H-1,2,3-triazol-2-yl)ethan-1-one] | < 10 nM |
| CC[C@]12CC[C@@](C)(O)C[C@H]1CC[C@H]1[C@@H]3CC[C@H](C(=O)Cn4ccnn4)[C@@]3(C)CC[C@@H]12 [II-13a, 1-((3R,5R,8S,9S,10S,13S,14S,17S)-10-ethyl-3-hydroxy-3,13-dimethylhexadecahydro-1H-cyclopenta[a]phenanthren-17-yl)-2-(1H-1,2,3-triazol-1-yl)ethan-1-one] | < 10 nM |
| CC[C@]12CC[C@@](C)(O)C[C@H]1CC[C@H]1[C@@H]3CC[C@H](C(=O)Cn4nnc(C)n4)[C@@]3(C)CC[C@@H]12 [II-14, 1-((3R,5R,8S,9S,10S,13S,14S,17S)-10-ethyl-3-hydroxy-3,13-dimethylhexadecahydro-1H-cyclopenta[a]henanthren-17-yl)-2-(5-methyl-2H-tetrazol-2-yl)ethan-1-one] | < 10 nM |
| CC[C@]12CC[C@@](C)(O)C[C@H]1CC[C@H]1[C@@H]3CC[C@H](C(=O)Cn4nnnc4C)[C@@]3(C)CC[C@@H]12 [II-14a, 1-((3R,5R,8S,9S,10S,13S,14S,17S)-10-ethyl-3-hydroxy-3,13-dimethylhexadecahydro-1H-cyclopenta[a]phenanthren-17-yl)-2-(5-methyl-1H-tetrazol-1-yl)ethan-1-one] | < 10 nM |
| CC[C@]12CC[C@@](C)(O)C[C@H]1CC[C@H]1[C@@H]3CC[C@H](C(=O)N4CCCC[C@@H]4C)[C@@]3(C)CC[C@@H]12 [II-20, ((3R,5R,8S,9S,10S,13S,14S,17S)-10-ethyl-3-hydroxy-3,13-dimethylhexadecahydro-1H-cyclopenta[a]phenanthren-ren-17-yl)((S)-2-methylpiperidin-1-yl)methanone] | 10 to 100 nM |
| CC[C@H]1CCCCN1C(=O)[C@H]1CC[C@H]2[C@@H]3CC[C@@H]4C[C@](C)(O)CC[C@]4(CC)[C@H]3CC[C@]12C [II-21, ((3R,5R,8S,9S,10S,13S,14S,17S)-10-ethyl-3-hydroxy-3,13-dimethylhexadecahydro-cyclopenta[a]phenanthren-17-yl)((S)-2-ethylpiperidin-1-yl)methanone] | 10 to 100 nM |
| CC[C@@H]1CCCCN1C(=O)[C@H]1CC[C@H]2[C@@H]3CC[C@@H]4C[C@](C)(O)CC[C@]4(CC)[C@H]3CC[C@]12C [II-21a, ((3R,5R,8S,9S,10S,13S,14S,17S)-10-ethyl-3-hydroxy-3,13-dimethylhexadecahydro-1H-cyclopenta[a]phenanthren-17-yl)((R)-2-ethylpiperidin-1-yl)methanone] | 10 to 100 nM |
| CC[C@]12CC[C@@](C)(O)C[C@H]1CC[C@H]1[C@@H]3CC[C@H](C(N)=O)[C@@]3(C)CC[C@@H]12 [II-22, (3R,5R,8S,9S,10S,13S,14S,17S)-10-ethyl-3-hydroxy-3,13-dimethylhexadecahydro-1H-cyclopenta[a]phenanthrene-17-carboxamide] | 100 to 1000 nM |
